Measurements: patent publication US20170157135A1 (Novogen Limited, priority 2013, published 2017)

Key:
Type in all cases: cell-based
A549 lung (NSLC) cells = assay: Anti-proliferative assay (cell-titre luminescent), A549; settings: Homo sapiens; A549, 72 hours, luminescence
Protocol: (§1) The ability of compounds 2002, 2009 and 2013-2064 to inhibit the proliferation of cancer cells representative of neuroblastoma, melanoma, prostate cancer, colorectal cancer, non-small cell lung carcinoma, and triple negative breast cancer was assessed. These studies were conducted by contract research (GVK-BIO). Briefly, a pre-determined number of cells as calculated from cell growth assays for each of the cell lines employed were seeded into their respective culture medium (using ATCC culture parameters—http://www.atcc.org) and cultured for 24 h at 37° C. and 5% CO2 in 96-well culture plates. Once attached, each cell line was then exposed to various concentrations of each respective analogue (30, 10, 3, 1, 0.3 and 0.1 μM), cultured for a further 72 hours and exposed to cell-titre luminescent reagent (100 μL/well) for a further 30 minutes). Luminescence was captured using an EnVision multilabel reader and the data for each analogue concentration compared against no treatment control. Cell viability was normalized to control (vehicle alone) and dose-response curves, and half maximal effective concentration (EC50) values were determined using Graph Pad Prism 6 (nonlinear regression sigmoidal dose-response variable slope).

[1] = test system: CaCo2 colorectal cancer cells; assay: Anti-proliferative assay (cell-titre luminescent), CaCo2; settings: Homo sapiens, Caco-2; CaCo2, 72 hours, luminescence
Protocol: as §1

[2] = test system: PC3 prostate cancer cells; assay: Anti-proliferative assay (cell-titre luminescent), PC3; settings: PC3, 72 hours, luminescence
Protocol: as §1

[3] = test system: MDA-MB-231 breast cancer cells; assay: Anti-proliferative assay (cell-titre luminescent), MDA-MB-231; settings: Homo sapiens; MDA-MB-231, 72 hours, luminescence
Protocol: as §1

[4] = test system: DU145 prostate cancer cells; assay: Anti-proliferative assay (cell-titre luminescent), DU145; settings: Homo sapiens, DU-145; DU145, 72 hours, luminescence
Protocol: as §1

SK-Mel-28 melanoma cells = assay: Anti-proliferative assay (cell-titre luminescent), SK-Mel-28; settings: Homo sapiens; SK-Mel-28, 72 hours, luminescence
Protocol: as §1

[5] = test system: SK-N-SH neuroblastoma cells; assay: Anti-proliferative assay (cell-titre luminescent), SK-N-SH; settings: Homo sapiens, 72 hours, luminescence
Protocol: as §1

Structure (SMILES)	IC50 (A549 lung (NSLC) cells)	IC50 [1]	IC50 [2]	IC50 [3]	IC50 [4]	IC50 (SK-Mel-28 melanoma cells)	IC50 [5]
COc1ccc(CCN2CCN(C(=O)/C=C/c3c(C)n(CCCN(C)C)c4ccc(OC)cc34)CC2)cc1 [Compound 2019, (E)-3-(1-(3-(dimethylamino)propyl)-5-methoxy-2-methyl-1H-indol-3-yl)-1-(4-(4-methoxyphenethyl)piperazin-1-yl)prop-2-en-1-one]	10.6 µM	25.1 µM	9.3 µM	5.1 µM	14.8 µM	6.3 µM	5.5 µM
CCOc1ccc2c(c1)c(C(=O)N1CCN(CCc3ccc(F)cc3)CC1)c(C)n2CCCN(C)C [Compound 2062, (1-(3-(dimethylamino)propyl)-5-ethoxy-2-methyl-1H-indol-3-yl)(4-(4-fluorophenethyl)piperazin-1-yl)methanone]	> 30 µM	18.6 µM	13.1 µM	8.1 µM	> 30 µM	9 µM	20.6 µM
COc1cccc(CCN2CCN(C(=O)c3c(C)n(CCCN(C)C)c4ccc(OC)cc34)CC2)c1 [Compound 2048, (1-(3-(dimethylamino)propyl)-5-methoxy-2-methyl-1H-indol-3-yl)(4-(3-methoxyphenethyl)piperazin-1-yl)methanone]	> 30 µM	> 30 µM	> 30 µM	> 30 µM	> 30 µM	> 30 µM	> 30 µM
COc1ccc2c(c1)c(C(=O)N1CCN(CCc3cccc(F)c3)CC1)c(C)n2CCCN(C)C [Compound 2047, (1-(3-(dimethylamino)propyl)-5-methoxy-2-methyl-1H-indol-3-yl)(4-(3-fluorophenethyl)piperazin-1-yl)methanone]	14.3 µM	8.8 µM	14.9 µM	12 µM	13.6 µM	13.5 µM	10.9 µM
Cc1c(/C=C/C(=O)N2CCN(CCc3ccccc3)CC2)c2ccccc2n1CCCN(C)C [Compound 2017, (E)-3-(1-(3-(dimethylamino)propyl)-2-methyl-1H-indol-3-yl)-1-(4-phenethylpiperazin-1-yl)prop-2-en-1-one]	13.6 µM	12.6 µM	11.5 µM	18.5 µM	15.7 µM	8.7 µM	17.6 µM
COc1ccc2c(c1)c(/C=C/C(=O)N1CCN(CCc3ccc4c(c3)OCO4)CC1)c(C)n2CCCN1CCN(C)CC1 [Compound 2031, (E)-1-(4-(2-(benzo[d][1,3]dioxol-5-yl)ethyl)piperazin-1-yl)-3-(5-methoxy-2-methyl-1-(3-(4-methylpiperazin-1-yl)propyl)-1H-indol-3-yl)prop-2-en-1-one]	4.2 µM	3.7 µM	2.1 µM	5.2 µM	6.2 µM	3.9 µM	3.7 µM
CCN(CC)CCCn1c(C)c(C(=O)N2CCN(CCc3ccc(OC)cc3)CC2)c2cc(OC)ccc21 [Compound 2051, (1-(3-(diethylamino)propyl)-5-methoxy-2-methyl-1H-indol-3-yl)(4-(4-methoxyphenethyl)piperazin-1-yl)methanone]	> 30 µM	> 30 µM	> 30 µM	10.3 µM	> 30 µM	6 µM	10.9 µM
Cc1c(C(=O)N2CCN(CCc3ccccc3)CC2)c2ccccc2n1CCCN(C)C [Compound 2043, (1-(3-(dimethylamino)propyl)-2-methyl-1H-indol-3-yl)(4-phenethylpiperazin-1-yl)methanone]	> 30 µM	> 30 µM	> 30 µM	> 30 µM	> 30 µM	17.2 µM	17.4 µM
CCN(CC)CCCn1c(C)c(/C=C/C(=O)N2CCN(CCc3ccc(OC)cc3)CC2)c2cc(OC)ccc21 [Compound 2024, (E)-3-(1-(3-(diethylamino)propyl)-5-methoxy-2-methyl-1H-indol-3-yl)-1-(4-(4-methoxyphenethyl)piperazin-1-yl)prop-2-en-1-one]	7.7 µM	5.3 µM	5.7 µM	4.1 µM	8.4 µM	3 µM	3.4 µM
COc1ccc2c(c1)c(C(=O)N1CCN(CCc3ccc(F)cc3)CC1)c(C)n2CCCN1CCN(C)CC1 [Compound 2056, (4-(4-fluorophenethyl)piperazin-1-yl)(5-methoxy-2-methyl-1-(3-(4-methylpiperazin-1-yl)propyl)-1H-indol-3-yl)methanone]	14.7 µM	10.1 µM	10.8 µM	13.9 µM	18.9 µM	4.8 µM	11.2 µM
COc1ccc(CCN2CCN(C(=O)/C=C/c3c(C)n(CCCN4CCN(C)CC4)c4ccc(OC)cc34)CC2)cc1 [Compound 2030, (E)-3-(5-methoxy-2-methyl-1-(3-(4-methylpiperazin-1-yl)propyl)-1H-indol-3-yl)-1-(4-(4-methoxyphenethyl)piperazin-1-yl)prop-2-en-1-one]	7.9 µM	5.4 µM	4 µM	4.3 µM	7.9 µM	3.4 µM	3.6 µM
COc1ccc2c(c1)c(C(=O)N1CCN(CCc3cccc(F)c3)CC1)c(C)n2CCCN1CCN(C)CC1 [Compound 2059, (4-(3-fluorophenethyl)piperazin-1-yl)(5-methoxy-2-methyl-1-(3-(4-methylpiperazin-1-yl)propyl)-1H-indol-3-yl)methanone]	10.2 µM	19.6 µM	9.2 µM	7 µM	10.1 µM	3.8 µM	4.2 µM
CCN(CC)CCCn1c(C)c(C(=O)N2CCN(CCc3cccc(F)c3)CC2)c2cc(OC)ccc21 [Compound 2053, (1-(3-(diethylamino)propyl)-5-methoxy-2-methyl-1H-indol-3-yl)(4-(3-fluorophenethyl)piperazin-1-yl)methanone]	13.5 µM	12.2 µM	11 µM	12.6 µM	13.6 µM	4.7 µM	4.8 µM
CCN(CC)CCCn1c(C)c(C(=O)N2CCN(CCc3ccc(F)cc3)CC2)c2cc(OC)ccc21 [Compound 2050, (1-(3-(diethylamino)propyl)-5-methoxy-2-methyl-1H-indol-3-yl)(4-(4-fluorophenethyl)piperazin-1-yl)methanone]	19.8 µM	10.4 µM	26.4 µM	14 µM	15.9 µM	5.3 µM	21.4 µM
COc1ccc2c(c1)c(C(=O)N1CCN(CCc3ccc4c(c3)OCO4)CC1)c(C)n2CCCN1CCN(C)CC1 [Compound 2058, (4-(2-(benzo[d][1,3]dioxol-5-yl)ethyl)piperazin-1-yl)(5-methoxy-2-methyl-1-(3-(4-methylpiperazin-1-yl)propyl)-1H-indol-3-yl)methanone]	13.9 µM	10.8 µM	12 µM	29.8 µM	21.1 µM	4.8 µM	8 µM
CCOc1ccc2c(c1)c(/C=C/C(=O)N1CCN(CCc3ccc(F)cc3)CC1)c(C)n2CCCN(C)C [Compound 2035, (E)-3-(1-(3-(dimethylamino)propyl)-5-ethoxy-2-methyl-1H-indol-3-yl)-1-(4-(4-fluorophenethyl)piperazin-1-yl)prop-2-en-1-one]	8.3 µM	5.1 µM	5.6 µM	3 µM	6.2 µM	3.2 µM	3.3 µM
COc1ccc2c(c1)c(/C=C/C(=O)N1CCN(CCc3ccc(F)cc3)CC1)c(C)n2CCCN1CCN(C)CC1 [Compound 2029, (E)-1-(4-(4-fluorophenethyl)piperazin-1-yl)-3-(5-methoxy-2-methyl-1-(3-(4-methylpiperazin-1-yl)propyl)-1H-indol-3-yl)prop-2-en-1-one]	4.5 µM	4.4 µM	2.9 µM	3.3 µM	4.2 µM	5.7 µM	2.8 µM
CCN(CC)CCCn1c(C)c(C(=O)N2CCN(CCc3ccccc3)CC2)c2cc(OC)ccc21 [Compound 2055, (1-(3-(diethylamino)propyl)-5-methoxy-2-methyl-1H-indol-3-yl)(4-phenethylpiperazin-1-yl)methanone]	> 30 µM	> 30 µM	> 30 µM	> 30 µM	> 30 µM	1.1 µM	> 30 µM
Cc1c(C(=O)N2CCN(CCc3cccc(F)c3)CC2)c2ccccc2n1CCCN(C)C [Compound 2041]	> 30 µM	> 30 µM	> 30 µM	> 30 µM	> 30 µM	17.1 µM	13.2 µM
